Experimental data from US20190209506A1, “METHODS OF REDUCING OR PREVENTING OXIDATION OF LDL OR LIPID MEMBRANES IN A SUBJECT IN NEED THEREOF” (Amarin Pharmaceuticals Ireland Limited, priority 2018, published 2019).

Tests used:
Format in all cases: biochemical
[1] = Glucose-induced membrane lipid peroxidation (LOOH, CHOD-iodide assay) in DLPC/cholesterol vesicles (Examples 4, 5); details: for inhibition of the peroxidative effects of glucose (LOOH formation) / effect on LOOH formation / lipid peroxidation: 1:30 drug-to-phospholipid mole ratio; for effect on LOOH formation / lipid peroxidation: 72- and 96-hour time points
Protocol: All test compounds were further diluted in ethanol or aqueous buffer as needed. Glucose was prepared in saline buffer (0.5 mM HEPES, 154 mM NaCl, pH 7.3) at 11.0 mM (200 mg/dL). CHOD-iodide color reagent (stock) was prepared, with slight modification, as described by from El-Saadani et al. (J. […] Samples were shell-dried under nitrogen gas and placed under vacuum for 1 h to remove residual solvent. […] Lipid suspensions were then vortexed for 3 min at ambient temperature to form MLVs. All MLV samples were subjected to time-dependent autoxidation by incubating at 37° C. in an uncovered, shaking water bath. This method allows lipid peroxidation to occur gradually without requiring the use of exogenous initiators. Small aliquots (5-100 μL) of each sample were removed, immediately following MLV preparation (0 hour) and after exposing samples to oxidative conditions for 72 or 96 hour, and combined with 1.0 mL of activated CHOD-iodide color reagent. Aliquot volume was reduced with each successive time point to ensure that spectrophotometric readings were within the optimal adsorption range. Test samples were covered and incubated in darkness at room temperature for at least 4 hr. Sample absorbances were then measured against a CHOD blank at 365 nm using a Beckman DU-640 spectrophotometer. The CHOD colorimetric assay is based on the oxidation of iodide (I^−) by lipid hydroperoxide (LOOH) to form triiodide the quantity of which is directly proportional to the amount of LOOH present in the lipid sample. The molar absorptivity (ε) of I3^− is 2.46×10^4 M^−1 cm^−1 at 365 nm. […] All MLV samples were subjected to time-dependent autoxidation by incubating at 37° C. in an uncovered, shaking water bath. This method allows lipid peroxidation to occur gradually without requiring the use of exogenous initiators. Small aliquots (5-100 μL) of each sample were removed, immediately following MLV preparation (0 hr) and after exposing samples to oxidative conditions for 72 or 96 hr, and combined with 1.0 mL of activated CHOD-iodide color reagent. Aliquot volume was reduced with each successive time point to ensure that spectrophotometric readings were within the optimal adsorption range. Test samples were covered and incubated in darkness at room temperature for at least 4 hr. Sample absorbances were then measured against a CHOD blank at 365 nm using a Beckman DU-640 spectrophotometer. […] The molar absorptivity (ε) of I3^− is 2.46×10^4 M^−1 cm^−1 at 365 nm.

human sdLDL [2] = experiment: Copper-induced sdLDL oxidation, TBARS after 2 hr (Example 6)
Protocol: (§1) Venous blood was collected from healthy volunteers into vacutainer tubes containing sodium EDTA. Plasma was separated by centrifugation at 3000 g for 25 min at 4° C. and adjusted to a density of 1.020 g/mL with KBr. Triglyceride-rich lipoproteins (TGRL) and LDL fractions were then isolated by sequential centrifugation at 70,000 rpm at 4° C. in a Beckman LE-80 ultracentrifuge using a Beckman 50.4Ti rotor (Beckman Coulter, Inc., Fullerton, Calif.). The TGRL fraction (with a relative density of <1.020) was aspirated from the top of the centrifugate and discarded, leaving an LDL-enriched infranate (with a relative density of 1.020 to 1.063). The plasma LDL fraction was further fractionated into LDL1, LDL2, LDL3, and LDL4 (sdLDL) subfractions with relative densities of 1.020 to 1.035, 1.035 to 1.050, 1.050 to 1.063, and 1.063 to 1.075, respectively. The sdLDL subfraction was retained for additional experimentation. Plasma and lipoprotein fractions were maintained at 4° C. and protected from excessive exposure to light. Prior to oxidation experiments, EDTA was removed from the lipoprotein fraction using PD-10 desalting columns (GE Healthcare, Piscataway N.J.). After equilibration of the column with phosphate buffered saline (PBS), 2.5 mL of the lipoprotein fraction was loaded on the column and the flow-through discarded. The lipoprotein was then eluted with 3 mL of PBS. The LDL fractions were further diluted with PBS to obtain a 100 μg/mL apoB100 concentration.
LDL and sdLDL subfractions (0.6 mL each) were incubated with either 10 μL vehicle (ethanol) or 10 μL drug stock solution for 30 min to 1 hr at 37° C. Oxidation was initiated by the addition of 10 μM CuSO4. After 2 hr, 100 μL aliquots were removed from each subfraction and combined with 1.0 mL thiobarbituric acid (0.5%), 10 μL trichloroacetic acid (5%), 10 μL BHT (5 mg/mL in methanol), and 10 μL EDTA (5 mM). […]. Sample TBARS concentrations were determined spectrophotometrically by measuring sample absorbances against a standard curve derived from the hydrolysis of 1,1,3,3-tetramethoxypropane.

human LDL [3] = experiment: Copper-induced oxidation of unfractionated LDL, TBARS after 2 hr (Example 6)
Protocol: as §1, with “Prior to oxidation experiments, EDTA was removed from the lipoprotein fraction using PD-10 desalting columns (GE Healthcare, Piscataway N.J.). After equilibration of the column with phosphate buffered saline (PBS), 2.5 mL of the lipoprotein fraction was loaded on the column and the flow-through discarded. The lipoprotein was then eluted with 3 mL of PBS. The LDL fractions were further diluted with PBS to obtain a 100 μg/mL apoB100 concentration.” left out
LDL and sdLDL subfractions (0.6 mL each) were incubated with either 10 μL vehicle (ethanol) or 10 μL drug stock solution for 30 min to 1 hr at 37° C. […] Sample TBARS concentrations were determined spectrophotometrically by measuring sample absorbances against a standard curve derived from the hydrolysis of 1,1,3,3-tetramethoxypropane.

human LDL [4] = experiment: Copper-induced oxidation of unfractionated LDL, TBARS (Example 7); details: 1 hour
Protocol: An experiment to study the antioxidant effect of EPA in LDL and small dense LDL (“sdLDL”) was performed. LDL and sdLDL were isolated from the plasma of healthy volunteers by iodixanol density gradient ultracentrifugation, and adjusted to a final apolipoprotein concentration of 2 mg/mL. […] Vitamin E was also incubated with sample aliquots as a positive control.

human sdLDL [5] = experiment: Glucose-induced sdLDL oxidation, MDA/TBARS (Example 10); details: glucose 200 mg/dL
Protocol: Vitamin E (α-tocopherol) purchased from Sigma-Aldrich was prepared in ethanol at 1.0 mM (ε=3.06×10^4M^−1 cm^−1 at 294 nm) prior to experimental use. Test compounds were further diluted in ethanol or aqueous buffer as needed. Phosphate Buffered Saline (PBS) purchased from Sigma-Aldrich was prepared in double distilled water at 10 mM (138 mM NaCl, 2.7 mM KCl, pH 7.4). Glucose prepared in PBS was added to test samples to achieve a final concentration of 11.0 mM (200 mg/dL).
LDL and sdLDL were isolated from the plasma of healthy volunteers by iodixanol density gradient ultracentrifugation and adjusted to a final apolipoprotein concentration of 10 mg/mL. […] Sample aliquots were incubated at 100° C. for 30 minutes and then assayed for the formation of thiobarbituric acid-reactive substances (TBARS), having a molar absorptivity (ε) value of 1.56×10^5 M^−1 cm^−1 at 532 nm and were derived principally from the reaction of thiobarbituric acid with malondialdehyde (MDA). Lipid oxidation was measured by the colorimetric detection of malondialdehyde (MDA), a marker of oxidative stress.

SMILES	antioxidant effect (LOOH formation) ([1]; 1.0 μM, glucose 200 mg/dL, 96 hours)	inhibition of the peroxidative effects of glucose (LOOH formation) ([1]; glucose 200 mg/dL, 72 hours) [%]	inhibition of the peroxidative effects of glucose (LOOH formation) ([1]; glucose 200 mg/dL, 96 hours) [%]	effect on LOOH formation / lipid peroxidation ([1]; glucose)	effect on membrane LOOH formation ([1]; EPA at 1.0 and 5.0 μM, glucose)	LOOH formation compared to vehicle, glucose only, glucose and EA, glucose and ETE ([1]; Example 5, model membranes treated with glucose)	reduction of TBARS levels compared to vehicle-treated controls (human sdLDL [2]; 10.0 μM) [%]	reduction of TBARS levels compared to vehicle-treated controls (human sdLDL [2]; lowest dose tested (1.0)) [%]	reduction of TBARS levels (human LDL [3]; highest concentration tested (10.0), unfractionated LDL) [%]	inhibition of TBARS formation compared to vehicle-treated control (human LDL [4]; highest treatment concentration (10)) [%]	inhibition of sdLDL oxidation compared to vehicle controls (human sdLDL [5]; 10.0 μM) [%]	sdLDL oxidation (formation of MDA) (human sdLDL [5]; 10.0 μM) [µM]	IC50 (human sdLDL [5]) [µM]	effect on sdLDL oxidation (human sdLDL [2]; concentrations 1.0 μM to 10.0 μM)	effect on LDL oxidation (human LDL [3]; 1.0 μM to 10.0 μM, data not shown)	effect on unfractionated LDL oxidation (human LDL [4]; 10 μM)	effect on glucose-induced sdLDL oxidation (human sdLDL [5]; 10 μM, 1 hr)	increase of sdLDL oxidation compared to glucose-treated controls (human sdLDL [5]; 10 μM, 1 hr) [%]
CC/C=C\C/C=C\C/C=C\C/C=C\C/C=C\CCCC(=O)O [EPA, cis-5,8,11,14,17-eicosapentaenoic acid]	separate and potent antioxidant effects	88	86	significantly inhibited LOOH formation	inhibit membrane LOOH formation in a dose-dependent manner	significantly less LOOH formation	57	13	17	> 90	94	0.2 ± 0.1	< 1					
Cc1c(C)c2c(c(C)c1O)CC[C@@](C)(CCC[C@H](C)CCC[C@H](C)CCCC(C)C)O2 [vitamin E, α-tocopherol, reference compound]				no significant effect on lipid peroxidation			26							did not inhibit sdLDL oxidation except at the highest concentration	did not inhibit LDL oxidation at any concentration	no significant effect on unfractionated LDL oxidation	failed to inhibit sdLDL oxidation	63
